Assay results from PubChem BioAssay AID2060492 (Molecular Pharmacology Branch, DTP, NCI, 2025).
pIC50: −log10 of the molar value.

Tested on: 695427-040-R-J1-PDC complex spheroids, viability percent T/C
Test: Anticancer human tumor 695427-040-R-J1-PDC patient-derived colon adenocarcinoma cell line growth inhibition [GQUAD]
Conditions: for pIC50: curve of first compound; for viability, T/C: stronger effect = lower value
How it was run: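 Tumor cells were grown as complex spheroids with HUVEC endothelial cells and mesenchymal stem cells as stroma. G-quadruplex stabilizers were combined with targeted agents over half-log dilutions from near the clinical Cmax, or from 10 microM.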

[1] = second compound 0.0316 µM, first compound 0.0316 µM
[2] = second compound 0.0316 µM, first compound 0.1 µM
[3] = second compound 0.0316 µM, first compound 0.316 µM
[4] = second compound 0.0316 µM, first compound 1 µM
[5] = second compound 0.0316 µM, first compound 3.16 µM
[6] = second compound 0.0316 µM, first compound 10 µM
[7] = second compound 0.1 µM, first compound 0.0316 µM
[8] = second compound 0.1 µM, first compound 0.1 µM
[9] = second compound 0.1 µM, first compound 0.316 µM
[10] = second compound 0.1 µM, first compound 1 µM
[11] = second compound 0.1 µM, first compound 3.16 µM
[12] = second compound 0.1 µM, first compound 10 µM
[13] = second compound 0.316 µM, first compound 0.0316 µM
[14] = second compound 0.316 µM, first compound 0.1 µM
[15] = second compound 0.316 µM, first compound 0.316 µM
[16] = second compound 0.316 µM, first compound 1 µM
[17] = second compound 0.316 µM, first compound 3.16 µM
[18] = second compound 0.316 µM, first compound 10 µM
[19] = second compound 1 µM, first compound 0.0316 µM
[20] = second compound 1 µM, first compound 0.1 µM
[21] = second compound 1 µM, first compound 0.316 µM
[22] = second compound 1 µM, first compound 1 µM
[23] = second compound 1 µM, first compound 3.16 µM
[24] = second compound 1 µM, first compound 10 µM
[25] = second compound 3.16 µM, first compound 0.0316 µM
[26] = second compound 3.16 µM, first compound 0.1 µM
[27] = second compound 3.16 µM, first compound 0.316 µM
[28] = second compound 3.16 µM, first compound 1 µM
[29] = second compound 3.16 µM, first compound 3.16 µM
[30] = second compound 3.16 µM, first compound 10 µM
[31] = second compound 10 µM, first compound 0.0316 µM
[32] = second compound 10 µM, first compound 0.1 µM
[33] = second compound 10 µM, first compound 0.316 µM
[34] = second compound 10 µM, first compound 1 µM
[35] = second compound 10 µM, first compound 3.16 µM
[36] = second compound 10 µM, first compound 10 µM
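Further: spheroids exposed to compounds for seven days before readout.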

## CC(C)n1c(=O)n(C)c2cnc3cc(F)c(-c4ccc(OCCCN5CCCCC5)nc4)cc3c21 + CN(C)c1ccc(Nc2c3ccc(NC(=O)CCN4CCCC4)cc3nc3cc(NC(=O)CCN4CCCC4)ccc23)cc1
Second compound 0.0316 µM
  pIC50: < 5.00
Second compound 0.1 µM
  pIC50: < 5.00
Second compound 0.316 µM
  pIC50: < 5.00
Second compound 1 µM
  pIC50: < 5.00
Second compound 3.16 µM
  pIC50: < 5.00
Second compound 10 µM
  pIC50: < 5.00
[1]
  viability, T/C: 113%
[2]
  viability, T/C: 96.1%
[3]
  viability, T/C: 111%
[4]
  viability, T/C: 101%
[5]
  viability, T/C: 104%
[6]
  viability, T/C: 66%
[7]
  viability, T/C: 107%
[8]
  viability, T/C: 97.3%
[9]
  viability, T/C: 106%
[10]
  viability, T/C: 102%
[11]
  viability, T/C: 110%
[12]
  viability, T/C: 62.5%
[13]
  viability, T/C: 108%
[14]
  viability, T/C: 98.5%
[15]
  viability, T/C: 102%
[16]
  viability, T/C: 106%
[17]
  viability, T/C: 100%
[18]
  viability, T/C: 67.4%
[19]
  viability, T/C: 101%
[20]
  viability, T/C: 102%
[21]
  viability, T/C: 110%
[22]
  viability, T/C: 105%
[23]
  viability, T/C: 100%
[24]
  viability, T/C: 62.9%
[25]
  viability, T/C: 86.4%
[26]
  viability, T/C: 101%
[27]
  viability, T/C: 94.4%
[28]
  viability, T/C: 98.8%
[29]
  viability, T/C: 95.5%
[30]
  viability, T/C: 68.1%
[31]
  viability, T/C: 89.4%
[32]
  viability, T/C: 92.2%
[33]
  viability, T/C: 93.3%
[34]
  viability, T/C: 89.3%
[35]
  viability, T/C: 93.7%
[36]
  viability, T/C: 59.4%

## CC1COCCN1c1cc(C2(O)CC3CCC(C2)O3)c2cnn(-c3ccn[nH]3)c2n1 (stereo not given) + CN(C)c1ccc(Nc2c3ccc(NC(=O)CCN4CCCC4)cc3nc3cc(NC(=O)CCN4CCCC4)ccc23)cc1
Second compound 0.0316 µM
  pIC50: 5.64
Second compound 0.1 µM
  pIC50: 5.69
Second compound 0.316 µM
  pIC50: 5.70
Second compound 1 µM
  pIC50: 5.64
Second compound 3.16 µM
  pIC50: 5.81
Second compound 10 µM
  pIC50: 6.06
[1]
  viability, T/C: 105%
[2]
  viability, T/C: 79.7%
[3]
  viability, T/C: 73.6%
[4]
  viability, T/C: 55.5%
[5]
  viability, T/C: 48%
[6]
  viability, T/C: 39.6%
[7]
  viability, T/C: 100%
[8]
  viability, T/C: 81.9%
[9]
  viability, T/C: 69.4%
[10]
  viability, T/C: 57.2%
[11]
  viability, T/C: 45.4%
[12]
  viability, T/C: 38.1%
[13]
  viability, T/C: 89.3%
[14]
  viability, T/C: 87.1%
[15]
  viability, T/C: 70.3%
[16]
  viability, T/C: 57.4%
[17]
  viability, T/C: 46.4%
[18]
  viability, T/C: 39%
[19]
  viability, T/C: 91.3%
[20]
  viability, T/C: 80.7%
[21]
  viability, T/C: 67.1%
[22]
  viability, T/C: 53.9%
[23]
  viability, T/C: 50.9%
[24]
  viability, T/C: 38.6%
[25]
  viability, T/C: 81.9%
[26]
  viability, T/C: 78.1%
[27]
  viability, T/C: 69.9%
[28]
  viability, T/C: 51.8%
[29]
  viability, T/C: 46.1%
[30]
  viability, T/C: 37.5%
[31]
  viability, T/C: 83.9%
[32]
  viability, T/C: 78.2%
[33]
  viability, T/C: 66.9%
[34]
  viability, T/C: 46.4%
[35]
  viability, T/C: 41.2%
[36]
  viability, T/C: 35.5%

## CC1COCCN1c1cc(C2(S(C)(=N)=O)CC2)nc(-c2ccnc3[nH]ccc23)n1 (stereo not given) + CN(C)c1ccc(Nc2c3ccc(NC(=O)CCN4CCCC4)cc3nc3cc(NC(=O)CCN4CCCC4)ccc23)cc1
Second compound 0.0316 µM
  pIC50: < 5.00
Second compound 0.1 µM
  pIC50: < 5.00
Second compound 0.316 µM
  pIC50: < 5.00
Second compound 1 µM
  pIC50: < 5.00
Second compound 3.16 µM
  pIC50: < 5.00
Second compound 10 µM
  pIC50: < 5.00
[1]
  viability, T/C: 104%
[2]
  viability, T/C: 96.5%
[3]
  viability, T/C: 106%
[4]
  viability, T/C: 97%
[5]
  viability, T/C: 95.5%
[6]
  viability, T/C: 69.4%
[7]
  viability, T/C: 109%
[8]
  viability, T/C: 93.8%
[9]
  viability, T/C: 110%
[10]
  viability, T/C: 86.1%
[11]
  viability, T/C: 87%
[12]
  viability, T/C: 74%
[13]
  viability, T/C: 103%
[14]
  viability, T/C: 91.4%
[15]
  viability, T/C: 94.3%
[16]
  viability, T/C: 83.7%
[17]
  viability, T/C: 87.5%
[18]
  viability, T/C: 69.9%
[19]
  viability, T/C: 93.3%
[20]
  viability, T/C: 96.4%
[21]
  viability, T/C: 100%
[22]
  viability, T/C: 93.1%
[23]
  viability, T/C: 91.5%
[24]
  viability, T/C: 68.5%
[25]
  viability, T/C: 95.8%
[26]
  viability, T/C: 101%
[27]
  viability, T/C: 103%
[28]
  viability, T/C: 90.8%
[29]
  viability, T/C: 93.4%
[30]
  viability, T/C: 69.6%
[31]
  viability, T/C: 86.7%
[32]
  viability, T/C: 91.8%
[33]
  viability, T/C: 91.9%
[34]
  viability, T/C: 88.1%
[35]
  viability, T/C: 86%
[36]
  viability, T/C: 69.8%

## COc1ccc([C@@H](O)c2cc(-c3ncnc4cc(N5CCOCC5)ccc34)c(F)cc2Cl)nn1 + CN(C)c1ccc(Nc2c3ccc(NC(=O)CCN4CCCC4)cc3nc3cc(NC(=O)CCN4CCCC4)ccc23)cc1
Second compound 0.0316 µM
  pIC50: 5.08
Second compound 0.1 µM
  pIC50: < 5.00
Second compound 0.316 µM
  pIC50: 5.01
Second compound 1 µM
  pIC50: 5.10
Second compound 3.16 µM
  pIC50: 5.08
Second compound 10 µM
  pIC50: 5.16
[1]
  viability, T/C: 97.4%
[2]
  viability, T/C: 98.5%
[3]
  viability, T/C: 94.6%
[4]
  viability, T/C: 87.2%
[5]
  viability, T/C: 67.2%
[6]
  viability, T/C: 46.9%
[7]
  viability, T/C: 99.3%
[8]
  viability, T/C: 101%
[9]
  viability, T/C: 89.4%
[10]
  viability, T/C: 81.2%
[11]
  viability, T/C: 72.9%
[12]
  viability, T/C: 50%
[13]
  viability, T/C: 97.2%
[14]
  viability, T/C: 96.7%
[15]
  viability, T/C: 89.3%
[16]
  viability, T/C: 82.3%
[17]
  viability, T/C: 68.5%
[18]
  viability, T/C: 49.3%
[19]
  viability, T/C: 93.6%
[20]
  viability, T/C: 103%
[21]
  viability, T/C: 100%
[22]
  viability, T/C: 79%
[23]
  viability, T/C: 74.3%
[24]
  viability, T/C: 44.4%
[25]
  viability, T/C: 102%
[26]
  viability, T/C: 96.4%
[27]
  viability, T/C: 98.7%
[28]
  viability, T/C: 83.3%
[29]
  viability, T/C: 68.4%
[30]
  viability, T/C: 46.3%
[31]
  viability, T/C: 88.8%
[32]
  viability, T/C: 77.3%
[33]
  viability, T/C: 90.5%
[34]
  viability, T/C: 72.8%
[35]
  viability, T/C: 63.8%
[36]
  viability, T/C: 44%

## O=C(c1cc(Cc2n[nH]c(=O)c3ccccc23)ccc1F)N1CCN(C(=O)C2CC2)CC1 + CN(C)c1ccc(Nc2c3ccc(NC(=O)CCN4CCCC4)cc3nc3cc(NC(=O)CCN4CCCC4)ccc23)cc1
Second compound 0.0316 µM
  pIC50: < 5.00
Second compound 0.1 µM
  pIC50: < 5.00
Second compound 0.316 µM
  pIC50: < 5.00
Second compound 1 µM
  pIC50: < 5.00
Second compound 3.16 µM
  pIC50: < 5.00
Second compound 10 µM
  pIC50: < 5.00
[1]
  viability, T/C: 111%
[2]
  viability, T/C: 100%
[3]
  viability, T/C: 93.4%
[4]
  viability, T/C: 102%
[5]
  viability, T/C: 107%
[6]
  viability, T/C: 90.8%
[7]
  viability, T/C: 107%
[8]
  viability, T/C: 94.2%
[9]
  viability, T/C: 104%
[10]
  viability, T/C: 95.9%
[11]
  viability, T/C: 103%
[12]
  viability, T/C: 96%
[13]
  viability, T/C: 99.2%
[14]
  viability, T/C: 89.1%
[15]
  viability, T/C: 95.9%
[16]
  viability, T/C: 98.9%
[17]
  viability, T/C: 100%
[18]
  viability, T/C: 97.2%
[19]
  viability, T/C: 93.2%
[20]
  viability, T/C: 88.7%
[21]
  viability, T/C: 98.5%
[22]
  viability, T/C: 93.6%
[23]
  viability, T/C: 113%
[24]
  viability, T/C: 89.9%
[25]
  viability, T/C: 97.1%
[26]
  viability, T/C: 90.7%
[27]
  viability, T/C: 92.5%
[28]
  viability, T/C: 89.3%
[29]
  viability, T/C: 103%
[30]
  viability, T/C: 92%
[31]
  viability, T/C: 91.1%
[32]
  viability, T/C: 84.6%
[33]
  viability, T/C: 88%
[34]
  viability, T/C: 82.9%
[35]
  viability, T/C: 96.2%
[36]
  viability, T/C: 90.6%
